Measured values taken from patent US10485787B2, “Oral dosage forms of bendamustine and therapeutic use thereof” (ASTELLAS DEUTSCHLAND GMBH, priority 2010, dated 2019).
Structures can show the parent of a compound that is named as a salt.

Legend:
[1] = Phase 1 crossover study, urine pharmacokinetics of bendamustine, M3 and M4 (Example 23); type: in vivo, patients; conditions: for percentage of the dose excreted in urine as the metabolite: oral administration; for %Aeinf / %Aelast / CL renal: urine, Bendamustine HCl; for CL renal: human; for percentage of the dose excreted in urine unchanged: oral bendamustine
Procedure: Bendamustine was provided a) orally as capsules, a LFHC formulation (liquid-filled, hard-shell capsule) and b) intravenously as a solution after reconstituting a powder for the preparation of a solution for injection. The LFHC formulation (per capsule) was prepared from 55.1 mg bendamustine hydrochloride, 1.2 mg methylparaben, 0.12 mg polyparaben, 0.12 mg butylated hydroxytoluene, 10.9 mg ethanol and 532.56 mg Cremophor® RH40. The vial with powder for concentrate for solution was the marketed product in Germany (Ribomustine®) which contains per vial 100 mg of bendamustine hydrochloride and mannitol as an excipient. This product was reconstituted with water for injection to a final concentration of 2.5 mg/ml of bendamustine HCl and was further diluted with 0.9% NaCl until about 500 ml before administration to the patient, in accordance with the instructions of the package insert.
After oral and intravenous administration of bendamustine the concentration of bendamustine, as well as that of the active metabolites of bendamustine (M3 and M4), were determined in plasma and urine samples on day 1 and day 8. […] Subsequently the pharmacokinetic parameters of bendamustine and its metabolites were calculated.

[2] = Phase 1 crossover study, plasma pharmacokinetics of bendamustine, M3 and M4 (Example 23)
Procedure: 14 patients who were suffering from multiple myeloma, B-cell type chronic lymphocytic leukemia or advanced indolent non-Hodgkin's lymphoma were enrolled and were treated with bendamustine. […] After signing the informed consent form and following the screening period (days −21 to −2), eligible patients were assigned a patient number which was specific for each study site. Patients were randomized to receive one of the following on day 1 followed by the other on day 8: • a single oral dose of 110.2 mg (2×55.1 mg) bendamustine HCl • a single intravenous dose of 100 mg bendamustine HCl
Bendamustine was provided a) orally as capsules, a LFHC formulation (liquid-filled, hard-shell capsule) and b) intravenously as a solution after reconstituting a powder for the preparation of a solution for injection. The LFHC formulation (per capsule) was prepared from 55.1 mg bendamustine hydrochloride, 1.2 mg methylparaben, 0.12 mg […], 0.12 mg butylated hydroxytoluene, 10.9 mg ethanol and 532.56 mg Cremophor® RH40. The vial with powder for concentrate for solution was the marketed product in Germany (Ribomustine®) which contains per vial 100 mg of bendamustine hydrochloride and mannitol as an excipient. This product was reconstituted with water for injection to a final concentration of 2.5 mg/ml of bendamustine HCl and was further diluted with 0.9% NaCl until about 500 ml before administration to the patient, in accordance with the instructions of the package insert.
Patients were admitted to the study site for 2 periods; days −1 to 2 (period 1) and days 7 to 9 (period 2). A total of 12 patients was to be randomized to receive treatment. Six patients were to receive treatment with a single oral dose of 110.2 mg (2×55.1 mg) bendamustine HCl (day 1) followed by a single intravenous dose of 100 mg bendamustine HCl (day 8) while 6 other patients were to receive treatment in the alternate order. Patients underwent a washout period of at least 7 days between treatments.
After oral and intravenous administration of bendamustine the concentration of bendamustine, as well as that of the active metabolites of bendamustine (M3 and M4), were determined in plasma and urine samples on day 1 and day 8. Patients returned to the study site for an end-of-study visit 7 to 14 days after completion of the second treatment period, or after early discharge/withdrawal. Subsequently the pharmacokinetic parameters of bendamustine and its metabolites were calculated.

[3] = a range of organic solvents; cited from earlier work
[4] = cited from earlier work
[5] = Phase 1 crossover study, safety and tolerability (Example 23); type: in vivo, patients; conditions: oral and intravenous single doses
Procedure: Bendamustine was provided a) orally as capsules, a LFHC formulation (liquid-filled, hard-shell capsule) and b) intravenously as a solution after reconstituting a powder for the preparation of a solution for injection. The LFHC formulation (per capsule) was prepared from 55.1 mg bendamustine hydrochloride, 1.2 mg methylparaben, 0.12 mg polyparaben, 0.12 mg butylated hydroxytoluene, 10.9 mg ethanol and 532.56 mg Cremophor® RH40. The vial with powder for concentrate for solution was the marketed product in Germany (Ribomustine®) which contains per vial 100 mg of bendamustine hydrochloride and mannitol as an excipient. […]

[6] = Stability of aqueous solution of bendamustine as a function of pH; type: physicochemical

Q: Which “percentage of the dose excreted in urine as the metabolite” value [1] does the source give for `Cn1c(C(O)CCC(=O)O)nc2cc(N(CCCl)CCCl)ccc21` (stereo not drawn) [Example M3, γ-hydroxybendamustine] here?
A: The value was 0.6%.

Q: What about the “%Aeinf” value ([1]; 100 mg intravenously, Mean) of the same compound?
A: Its value is 0.459%.

Q: And the “%Aelast” value ([1]; 100 mg intravenously, Mean)?
A: Its value is 0.457%.

Q: And the “%Aeinf” value ([1]; 100 mg intravenously, Median)?
A: Its value is 0.354%.

Q: What about the “%Aelast” value ([1]; 100 mg intravenously, Median) of the same compound?
A: Its value is 0.353%.

Q: What about the “%Aeinf” value ([1]; 100 mg intravenously, Min-max) of the same compound?
A: Its value is 0.018-1.6%.

Q: And the “%Aelast” value ([1]; 100 mg intravenously, Min-max)?
A: Its value is 0.018-1.6%.

Q: What about the “%Aeinf” value ([1]; 110.2 mg orally, Mean) of the same compound?
A: Its value is 0.611%.

Q: And the “%Aelast” value ([1]; 110.2 mg orally, Mean)?
A: Its value is 0.61%.

Q: And the “%Aeinf” value ([1]; 110.2 mg orally, Median)?
A: The value was 0.537%.

Q: And the “%Aelast” value ([1]; 110.2 mg orally, Median)?
A: The value was 0.553%.

Q: What about the “%Aeinf” value ([1]; 110.2 mg orally, Min-max) of the same compound?
A: The value was 0.13-1.5%.

Q: What about the “%Aelast” value ([1]; 110.2 mg orally, Min-max) of the same compound?
A: Its value is 0.12-1.6%.

Q: And the “Mean AUCinf of bendamustine, times higher than for the metabolite” value ([2]; oral administration)?
A: Its value is 10.6 times.

Q: Which results are given for `O=C(O)CCCc1nc2cc(N(CCCl)CCCl)ccc2[nH]1` [Example M4, N-desmethylbendamustine]?
A: percentage of the dose excreted in urine as the metabolite [1]: 0.1%; %Aeinf ([1]; 100 mg intravenously, Mean): 0.081%; %Aelast ([1]; 100 mg intravenously, Mean): 0.086%; %Aeinf ([1]; 100 mg intravenously, Median): 0.045%; %Aelast ([1]; 100 mg intravenously, Median): 0.043%; %Aeinf ([1]; 100 mg intravenously, Min-max): 0.0039-0.17%; %Aelast ([1]; 100 mg intravenously, Min-max): 0.0028-0.21%; %Aeinf ([1]; 110.2 mg orally, Mean): 0.109%; %Aelast ([1]; 110.2 mg orally, Mean): 0.113%; %Aeinf ([1]; 110.2 mg orally, Median): 0.104%; %Aelast ([1]; 110.2 mg orally, Median): 0.104%; %Aeinf ([1]; 110.2 mg orally, Min-max): 0.034-0.22%; %Aelast ([1]; 110.2 mg orally, Min-max): 0.019-0.21%; Mean AUCinf of bendamustine, times higher than for the metabolite ([2]; oral administration): 88 times

Q: For `Cn1c(CCCC(=O)O)nc2cc(N(CCCl)CCCl)ccc21` [bendamustine hydrochloride], which CL renal ([1]; iv, 100 mg, 100 mg intravenously, Mean) is on record?
A: Its CL renal is 6.42 mL/min.

Q: And the CL renal ([1]; iv, 100 mg, 100 mg intravenously, Median)?
A: The CL renal was 3.37 mL/min.

Q: What about the CL renal ([1]; iv, 100 mg, 100 mg intravenously, Min-max) of the same compound?
A: Its CL renal is 1 to 23.3 mL/min.

Q: And the CL renal ([1]; po, 110.2 mg, 110.2 mg orally, Mean)?
A: Its CL renal is 13.1 mL/min.

Q: What about the CL renal ([1]; po, 110.2 mg, 110.2 mg orally, Median) of the same compound?
A: The CL renal was 13 mL/min.

Q: What about the CL renal ([1]; po, 110.2 mg, 110.2 mg orally, Min-max) of the same compound?
A: The CL renal was 3 to 33.3 mL/min.

Q: What about the “%Aeinf” value ([1]; 100 mg intravenously, Mean) of the same compound?
A: Its value is 2.07%.

Q: What about the “%Aelast” value ([1]; 100 mg intravenously, Mean) of the same compound?
A: Its value is 2.07%.

Q: What about the “%Aeinf” value ([1]; 100 mg intravenously, Median) of the same compound?
A: Its value is 1.22%.

Q: And the “%Aelast” value ([1]; 100 mg intravenously, Median)?
A: The value was 1.23%.

Q: What about the “%Aeinf” value ([1]; 100 mg intravenously, Min-max) of the same compound?
A: Its value is 0.27-8.8%.

Q: And the “%Aelast” value ([1]; 100 mg intravenously, Min-max)?
A: The value was 0.27-8.8%.

Q: What about the “%Aeinf” value ([1]; 110.2 mg orally, Mean) of the same compound?
A: The value was 2.64%.

Q: What about the “%Aelast” value ([1]; 110.2 mg orally, Mean) of the same compound?
A: The value was 2.66%.

Q: What about the “%Aeinf” value ([1]; 110.2 mg orally, Median) of the same compound?
A: The value was 2.23%.

Q: What about the “%Aelast” value ([1]; 110.2 mg orally, Median) of the same compound?
A: The value was 2.23%.

Q: What about the “%Aeinf” value ([1]; 110.2 mg orally, Min-max) of the same compound?
A: Its value is 0.40-5.8%.

Q: And the “%Aelast” value ([1]; 110.2 mg orally, Min-max)?
A: Its value is 0.40-5.9%.

Q: And the “solubility in organic solvents” value [3]?
A: Its value is “slightly or very slightly soluble”.

Q: And the AUC(0-inf) ([2]; human, plasma, iv, 100 mg)?
A: Its AUC(0-inf) is 4790 ng·h/mL.

Q: And the AUC(0-t) ([2]; human, plasma, iv, 100 mg)?
A: The AUC(0-t) was 4780 ng·h/mL.

Q: And the Cmax ([2]; human, plasma, iv, 100 mg)?
A: Its Cmax is 5900 ng/mL.

Q: And the Vd ([2]; human, plasma, iv, 100 mg, Vss, plasma, Bendamustine HCl, 100 mg intravenously, Mean)?
A: Its Vd is 10.3 L.

Q: And the Vd ([2]; human, plasma, iv, 100 mg, Vz, Bendamustine HCl, 100 mg intravenously, Mean)?
A: Its Vd is 14.7 L.

Q: And the half-life ([2]; human, plasma, iv, 100 mg, t1/2, plasma, Bendamustine HCl, 100 mg intravenously, Mean)?
A: Its half-life is 30.2 min.

Q: What about the Tmax ([2]; human, plasma, iv, 100 mg, Bendamustine HCl, 100 mg intravenously, Mean) of the same compound?
A: Its Tmax is 31.4 min.

Q: What about the AUC(0-inf) ([2]; human, plasma, po, 110.2 mg) of the same compound?
A: Its AUC(0-inf) is 3900 ng·h/mL.

Q: And the AUC(0-t) ([2]; human, plasma, po, 110.2 mg)?
A: Its AUC(0-t) is 3890 ng·h/mL.

Q: And the Cmax ([2]; human, plasma, po, 110.2 mg)?
A: The Cmax was 3170 ng/mL.

Q: What about the Vd/F ([2]; human, plasma, po, 110.2 mg) of the same compound?
A: The Vd/F was 20.2 L.

Q: What about the half-life ([2]; human, plasma, po, 110.2 mg, t1/2, plasma, Bendamustine HCl, 110.2 mg orally, Mean) of the same compound?
A: The half-life was 27.7 min.

Q: What about the Tmax ([2]; human, plasma, po, 110.2 mg, Bendamustine HCl, 110.2 mg orally, Mean) of the same compound?
A: Its Tmax is 56.8 min.

Q: And the CL ([2]; plasma, Bendamustine HCl, 100 mg intravenously, Mean)?
A: The CL was 21.2 L/h.

Q: And the “time at which maximal plasma levels were detectable” value ([4]; oral capsules, 250-350 mg, 7 patients (Preiss 1985))?
A: Its value is ≤ 1 h.

Q: And the “oral bioavailability, inter-individual range” value ([4]; similar study, Preiss et al. 1989)?
A: Its value is 25-121%.

Q: Which results are given for `Cn1c(CCCC(=O)O)nc2cc(N(CCCl)CCCl)ccc21` [bendamustine, 4-[5-[bis(2-chloroethyl)amino]-1-methylbenzimidazo-2-yl]butanoic acid]?
A: deaths during the study [5]: No deaths; percentage of the dose excreted in urine unchanged [1]: 2.6%; percentage of the dose excreted in urine unchanged ([1]; listed as Bendamustine): Approximately 2.6%; pH values at which significant hydrolytic decomposition is observed [6]: higher than 5; clearance ([2]; human, plasma, iv, 100 mg): 353 mL/min; Vd ([2]; human, plasma, iv, 100 mg, Mean VSS, intravenous administration): 10.3 L; Vd ([2]; human, plasma, iv, 100 mg, Mean VZ, intravenous administration): 14.7 L; half-life ([2]; human, plasma, iv, 100 mg, Mean t1/2, intravenous administration): ~30 min; half-life ([2]; human, plasma, po, 110.2 mg, Mean t1/2, oral intake): ~30 min; Tmax ([2]; human, plasma, po, 110.2 mg, individual values, oral administration): 15 to 108 min; Tmax ([2]; human, plasma, po, 110.2 mg, oral administration): ~57 min; oral bioavailability, range ([4]; oral capsules, 250-350 mg, patients (Preiss 1985)): 25-94%
